The subject of the experiment is ABCA-1 gene. Put plainly: compounds tested and found to elevate cellular expression of the ABCA-1 gene (Examples 1-6; test not named). The class given is cell-based. As to the method: Activity testing is conducted as described in those patents and patent applications referenced above, and in the Examples below, and by methods apparent to one skilled in the art.
Take “[4-(methylethyl)phenyl]-N-(4-oxo(1,3-thiazolin-2-yl))carboxamide”: the “cellular expression of the ABCA-1 gene” value is “elevate cellular expression of the ABCA-1 gene”.

Regarding “[4-(tert-butyl)phenyl]-N-(4-naphthyl(1,3-thiazol-2-yl))carboxamide”, the “cellular expression of the ABCA-1 gene” value is reported as “elevate cellular expression of the ABCA-1 gene”.

Regarding “[((2E)-2-pentyl-3-phenylprop-2-enyl)({1-[(4-butylphenyl)carbonyl](4-piperidyl)}methyl)amino]-N-benzamide”, the “cellular expression of the ABCA-1 gene” value is “elevate cellular expression of the ABCA-1 gene”.

As for “{1-[4-(3-methoxyphenyl)(1,3-thiazol-2-yl)]-5-methylpyrazol-4-yl}-N-(methylethyl)carboxamide”, the “cellular expression of the ABCA-1 gene” value is recorded as “elevate cellular expression of the ABCA-1 gene”.

Values taken from patent publication US6900219B2, “ABCA-1 elevating compounds” (CV Therapeutics, Inc., priority 2002, dated 2005).
